Reference: US7109186B2 (Bristol-Myers Squibb Company, priority 2002, dated 2006)

Columns and labels:
[1] = biological target: T1, HIV-integrase (Human immunodeficiency virus type 1 group M subtype B, UniProt P04585); assay: HIV integrase SPA integration assay (biotin-labeled substrate DNA on streptavidin SPA beads, P33-labeled target DNA); assay type: biochemical; settings: percent inhibition of HIV-integrase in the presence of 20 μM of compound
T1 construct: 0.26 ng of recombinant integrase was incubated with the beads for 90 min at 37 C
Experimental: For each reaction, 5 pmole of biotin labeled substrate DNA was bound to 100 ug of Streptavidin coated PVT SPA beads (Amersham Pharmacia Biotech). 0.26 ng of recombinant integrase was incubated with the beads for 90 min at 37 C. Unbound enzyme was removed by washing the complex followed by addition of inhibitors and 0.1 fmol of P33 labeled target DNA. Reaction was stopped by adding EDTA to a final concentration of 10 mM. Samples were counted in TopCountNXT (Packard) and the CPM was used as a measure of integration. Reaction condition was as described in A. Engelman and R. Craigie, J. Virol. 69, 5908–5911 (1995). The sequences of substrate and target DNA were described in Nucleic Acid Research 22, 1121–1122 (1994).

SMILES | melting point | inhibition at 20 µM [1]
CON(Cc1ccc(F)cc1)C(=O)C1=C(O)C(=O)N(C)C1 | 125 °C (dec.) | 
CN1CC(C(=O)N(C)Cc2ccc(C(F)(F)F)cc2)=C(O)C1=O | 126 to 128 °C | 
CON(Cc1ccc(C(F)(F)F)cc1)C(=O)C1=C(O)C(=O)N(C)C1 | 145 °C (dec.) | 
CON(Cc1ccc(C(F)(F)F)cc1)C(=O)C1=C(O)C(=O)N(CCN2CCOCC2)C1 | 119 °C (dec.) | 
CON(Cc1ccc(F)cc1C(F)(F)F)C(=O)C1=C(O)C(=O)N(C)C1 | 167 °C (dec.) | 
CN1CC(C(=O)N(C)CCCc2ccc(F)cc2)=C(O)C1=O | 129 °C (dec.) | 
CON(CCCc1ccc(Cl)c(Cl)c1)C(=O)C1=C(O)C(=O)N(C)C1 | 106 to 108 °C | 
CN(Cc1ccc(Cl)c(Cl)c1)C(=O)C1=C(O)C(=O)N(C2CC2)C1 [Compound 14, 1-Cyclopropyl-4-hydroxy-5-oxo-2,5-dihydro-1H-pyrrole-3-carboxylic acid (3,4-dichloro-benzyl)-methyl-amide] | 163 to 164 °C | 99.7%
CN(Cc1ccc(Cl)c(Cl)c1)C(=O)C1=C(O)C(=O)N(CCC(=O)O)C1 [Compound 18, 3-[4-[(3,4-dichloro-benzyl)-methyl-carbamoyl]-3-hydroxy-2-oxo-2,5-dihydro-pyrrol-1-yl]-propionic acid] | 183 to 184 °C | 99.9%
CN(Cc1ccc(Cl)c(Cl)c1)C(=O)C1=C(O)C(=O)N(CC(=O)O)C1 [Compound 20, {4-[(3,4-Dichloro-benzyl)-methyl-carbamoyl]-3-hydroxy-2-oxo-2,5-dihydro-pyrrol-1-yl}-acetic acid] | 178 to 180 °C | 99.9%
CN(Cc1ccc(Cl)c(Cl)c1)C(=O)C1=C(O)C(=O)N(CCC(=O)NCCC(=O)O)C1 [Compound 37, 3-(3-{4-[(3,4-Dichloro-benzyl)-methyl-carbamoyl]-3-hydroxy-2oxo-2,5-dihydro-pyrrol-1-yl}-propionylamino)-propionic acid] |  | 99.9%
CN(Cc1ccc(Cl)c(Cl)c1)C(=O)C1=C(O)C(=O)N(CCNC(=O)CCN2CCOCC2)C1 [Compound 38, 4-Hydroxy-1-[2-(3-morpholin-4-yl-propionylamino)-ethyl]-5-oxo-2,5-dihydro-1H-pyrrole-3-carboxylic acid (3,4-dichloro-benzyl)-methyl-amide] |  | 99.9%
CN(Cc1ccc(Cl)c(Cl)c1)C(=O)C1=C(O)C(=O)N(CCC(=O)NCC(=O)O)C1 [Compound 39, (3-{4-[(3,4-Dichloro-benzyl)-methyl-carbamoyl]-3-hydroxy-2-oxo-2,5-dihydro-pyrrol-1-yl}-propionylamino)-acetic acid] |  | 99.9%
CN(Cc1ccc(Cl)c(Cl)c1)C(=O)C1=C(O)C(=O)N(CCC(N)=O)C1 [Compound 40, 1-(2-Carbamoyl-ethyl)-4-hydroxy-5-oxo-2,5-dihydro-1H-pyrrole-3-carboxylic acid (3,4-dichloro-benzyl)-methyl-amide] |  | 99.9%
COC(=O)c1ccc(CN2CC(C(=O)N(C)Cc3ccc(Cl)c(Cl)c3)=C(O)C2=O)cc1 [Compound 41, 4-{4-[(3,4-Dichloro-benzyl)-methyl-carbamoyl]-3-hydroxy-2-oxo-2,5-dihydro-pyrrol-1-ylmethyl}-benzoic acid methyl ester] |  | 99.9%
CN(Cc1ccc(Cl)c(Cl)c1)C(=O)C1=C(O)C(=O)N(CCC#N)C1 [Compound 42, 1-(2-Cyano-ethyl)-4-hydroxy-5-oxo-2,5-dihydro-1H-pyrrole-3carboxylic acid (3,4-dichloro-benzyl)-methyl-amide] |  | 99.9%
CN(Cc1ccc(Cl)c(Cl)c1)C(=O)C1=C(O)C(=O)N(CCCN2CCOCC2)C1 [Compound 43, 4-Hydroxy-1-(3-morpholin-4-yl-propyl)-5-oxo-2,5-dihydro-1H-pyrrole-3-carboxylic acid (3,4-dichloro-benzyl)-methyl-amide] |  | 99.9%
CON(Cc1ccc(F)cc1)C(=O)C1=C(O)C(=O)N(CCN2CCOCC2)C1 [Compound 45, 4-Hydroxy-1-(2-morpholino-4-yl-ethyl)-5-oxo-2,5-dihydro-1H-pyrrole-3-carboxylic acid (4-fluoro-benzyl)-methoxy-amide] |  | 99.5%

SMILES | melting point | inhibition at 20 µM [1]
CON(Cc1ccc(F)cc1)C(=O)C1=C(O)C(=O)N(CCN2CCNCC2)C1 [Compound 46, 4-Hydroxy-5-oxo-1-(2-piperazin-1-yl-ethyl)-2,5-dihydro-1H-pyrrole-3-carboxylic acid (4-fluoro-benzyl)-methoxy-amide] |  | 99.3%
CON(Cc1ccc(Cl)c(Cl)c1)C(=O)C1=C(O)C(=O)N(C)C1 [Compound 47, 4-Hydroxy-1-methyl-5-oxo-2,5-dihydro-1H-pyrrole-3-carboxylic acid (3,4-dichloro-benzyl)-methoxy-amide] | 149 °C | 99.9%
CON(Cc1cccc(F)c1)C(=O)C1=C(O)C(=O)N(C)C1 [Compound 49, 4-Hydroxy-1-methyl-5-oxo-2,5-dihydro-1H-pyrrole-3-carboxylic acid (3-fluoro-benzyl)-methoxy-amide] | 119 °C (dec.) | 98.5%
CON(Cc1ccccc1F)C(=O)C1=C(O)C(=O)N(C)C1 [Compound 50, 4-Hydroxy-1-methyl-5-oxo-2,5-dihydro-1H-pyrrole-3-carboxylic acid (2-fluoro-benzyl)-methoxy-amide] | 147 °C (dec.) | 92%
CON(Cc1ccc(Cl)cc1)C(=O)C1=C(O)C(=O)N(C)C1 [Compound 51, 4-Hydroxy-1-methyl-5-oxo-2,5-dihydro-1H-pyrrole-3-carboxylic acid (4-chloro-benzyl)-methoxy-amide] | 165 °C (dec.) | 99.9%
CON(CCc1ccc(F)cc1)C(=O)C1=C(O)C(=O)N(C)C1 [Compound 52, 4-Hydroxy-1-methyl-5-oxo-2,5-dihydro-1H-pyrrole-3-carboxylic acid [2-(4-fluoro-phenyl)-ethyl]-methoxy-amide] | 157 °C (dec.) | 86%
CCON(Cc1ccc(F)cc1)C(=O)C1=C(O)C(=O)N(C)C1 [Compound 53, 4-Hydroxy-1-methyl-5-oxo-2,5-dihydro-1H-pyrrole-3-carboxylic acid ethoxy-(4-fluoro-benzyl)-amide] | 113 to 114 °C | 99%
CON(Cc1ccc(F)c(F)c1)C(=O)C1=C(O)C(=O)N(C)C1 [Compound 54, 4-Hydroxy-1-methyl-5-oxo-2,5-dihydro-1H-pyrrole-3-carboxylic acid (3,4-difluoro-benzyl)-methoxy-amide] | 146 to 147 °C | 99.9%
COc1ccc(CN(OC)C(=O)C2=C(O)C(=O)N(C)C2)cc1 [Compound 55, 4-Hydroxy-1-methyl-5-oxo-2,5-dihydro-1H-pyrrole-3-carboxylic acid methoxy-(4-methoxy-benzyl)-amide] | 135 to 137 °C | 99.9%
CON(Cc1ccc(F)cc1F)C(=O)C1=C(O)C(=O)N(C)C1 [Compound 60, 4-Hydroxy-1-methyl-5-oxo-2,5-dihydro-1H-pyrrole-3-carboxylic acid (2,4-difluoro-benzyl)-methoxy-amide] |  | 99.7%
CON(Cc1ccc(F)c(C#N)c1)C(=O)C1=C(O)C(=O)N(C)C1 [Compound 61, 4-Hydroxy-1-methyl-5-oxo-2,5-dihydro-1H-pyrrole-3-carboxylic acid (3-cyano-4-fluoro-benzyl)-methoxy-amide] |  | 99.3%
CON(Cc1ccccc1OC(C)C)C(=O)C1=C(O)C(=O)N(C)C1 [Compound 66, 4-Hydroxy-1-methyl-5-oxo-2,5-dihydro-1H-pyrrole-3-carboxylic acid (2-isopropoxy)-methoxy-amide] |  | 99%
COC(=O)c1ccc(CN(OC)C(=O)C2=C(O)C(=O)N(C)C2)cc1 [Compound 67, 4-{[(4-Hydroxy-1-methyl-5-oxo-2,5-dihydro-1H-pyrrole-3-carbonyl)-methoxy-amino]-methyl}-benzoic acid methyl ester] |  | 96.5%
CON(Cc1ccc(C(=O)OC(C)(C)C)cc1)C(=O)C1=C(O)C(=O)N(C)C1 [Compound 68-A, 4-{[(4-Hydroxy-1-methyl-5-oxo-2,5-dihydro-1H-pyrrole-3-carbonyl)-methoxy-amino]-methyl}-benzoic acid tert-butyl ester] |  | 4.5%
CON(C(=O)C1=C(O)C(=O)N(C)C1)C(c1ccc(F)cc1)c1ccc(F)cc1 [Compound 73, 4-Hydroxy-1-methyl-5-oxo-2,5-dihydro-1H-pyrrole-3-carboxylic acid [bis-(4-fluoro-phenyl)-methyl]-methoxy-amide] |  | 10%
CN1CC(C(=O)N(Cc2ccc(F)cc2)Cc2ccc(F)cc2)=C(O)C1=O [Compound 76, 4-Hydroxy-1-methyl-5-oxo-2,5-dihydro-1H-pyrrole-3-carboxylic acid bis-(4-fluoro-benzyl)-amide] |  | 96%
CN1CC(C(=O)N(Cc2ccc(Cl)cc2)Cc2ccc(Cl)c(Cl)c2)=C(O)C1=O [Compound 77, 4-Hydroxy-1-methyl-5-oxo-2,5-dihydro-1H-pyrrole-3-carboxylic acid (4-chloro-benzyl)-(3,4-dichloro-benzyl)-amide] |  | 99.8%
CN1CC(C(=O)N(C)Cc2ccccc2)=C(O)C1=O [Compound 79, 4-Hydroxy-1-methyl-5-oxo-2,5-dihydro-1H-pyrrole-3-carboxylic acid benzyl-methyl-amide] |  | 92.4%
